Results on 2 molecules are retold here after PubChem BioAssay AID1207 (NMMLSC, 2008).

Active and inactive are the calls of the source.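 How the source made its calls: active means score above 15, the percent gain in GFP-over-time curve area versus untreated cells across six hours; inactive means the rest.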 Peptide text beside a SMILES is read from it. * marks the point of attachment. Cbz = O=C(OCc1ccccc1)*

The assay has as its system yeast RJD 2456 GFP degradation, flow cytometry. As to the kind of experiment: PubChem AID 1207. The settings on record: at 150 µM; stronger effect = higher value.

As for `CC(=O)N1C(=O)C(=C2C=C(C)OC(C)=C2)c2ccccc21`, the GFP remaining is 0.705% (inactive).
For the molecule `CC(C)C[C@@H](C=O)NC(=O)[C@H](CC(C)C)NC(=O)[C@H](CC(C)C)NC(=O)OCc1ccccc1` (Cbz-Leu-Leu-Leu-aldehyde), the GFP remaining was 1.91% (inactive).
